Where two headings read alike, the source gives them in different places.
Legend:
[1] = test system: P. berghei strain CTRPpGFP early mosquito stage (ookinete) development; experiment: P. berghei ookinete development assay (Pb ODA); format: cell-based, Plasmodium berghei; conditions: for IC50: Plasmodium berghei, 24h incubation
Protocol: All mouse procedures were performed in accordance with the UK Animals (Scientific Procedures) Act (PPL 70/7185) and approved by the Imperial College Animal Welfare and Ethical Review Body (AWERB). The ability of test compounds to inhibit P. berghei early mosquito stage development was tested in the Ookinete Development Assay[37] with a few exceptions. Anaesthetised 6- to 8-week-old female Tucks Ordinary (TO) mice infected with P. berghei strain CTRPpGFP[38] were rapidly exsanguinated by cardiac puncture and 500 µl of blood diluted in 25 ml of ookinete medium supplemented with 20% foetal bovine serum. Immediately the blood/medium mixture was dispensed by multichannel pipette into 384 well plates containing pre-plated test compounds. 10 µM cycloheximide and DMSO were used as the positive and negative controls, respectively. Plates were stored in the dark in a humidified incubator at 18 °C for 24 h. Ookinete production was imaged by fluorescence microscopy of GFP expression under the ookinete-specific CTRP promoter using a Nikon Ti-E widefield microscope and ×10 objective. Ookinete production was quantified using ICY and percentage inhibition calculated as above with reference to positive and negative controls.

[2] = test system: P. falciparum stage V male gametocytes (male gamete formation); experiment: P. falciparum dual gamete formation assay (Pf DGFA), male readout (exflagellation), 48 h carry-over format; format: cell-based, Plasmodium falciparum NF54; conditions: Plasmodium falciparum, 24h preincubation/carry-over
[3] = test system: HepG2 human cells; set-up: method as in http://dx.doi.org/10.6019/CHEMBL3507680; conditions: ref http://dx.doi.org/10.6019/CHEMBL3507680; cited from earlier work
[4] = test system: P. falciparum female gamete formation; experiment: Pf DGFA add-in format, female readout; format: cell-based; conditions: Plasmodium falciparum; 0h preincubation/add-in
Protocol: (§1) In profiling mode, the Pf DGFA was performed in 96-well plates[23] in wash-out and add-in formats to aid manual manipulation steps. In the wash-out format, gametocytes were incubated for 24 h with test compounds in round-bottomed 96 well plates and then culture medium replaced three times over 6 h, to remove as much of the compound as possible from the well. […] In add-in format, gametocytes were added directly to flat-bottomed 96-well plates containing test compounds, ookinete medium and anti-Pfs25.

[5] = test system: HepG2 cells; experiment: HepG2 toxicity (CellTiter-Glo, parallel to liver stage assay); format: cell-based, human
Protocol: (§2) Compound inhibition of P. berghei sporozoite liver infection was assessed in a high-throughput luciferase assay. 1536-well plates (789173-F, Greiner Bio-One) were pre-seeded with 5 µl HepG2-A16-CD81^EGFP cells grown in DMEM (11965–092, Invitrogen) containing 10% FBS (35–011-CV, Corning) and 1× Pen Strep Glutamine (10378–016, Invitrogen). Then, 50 nl of compound in DMSO was dispensed in 12-point serial dilution dose-response format (50 µM to 2.82 × 10^−4 µM), and incubated overnight.A. stephensi mosquitoes infected with P. berghei-ANKA-GFP-Luc-SMCON (Pb-Luc)[41] sporozoites bearing the antifolate-resistance-conferring Toxoplasma gondii dihydrofolate reductase-thymidylate synthase selectable marker, pyR2. After dissection, ~1000 sporozoites in 5 µl screening media (DMEM, 11965–092, Invitrogen; 5% FBS, 35–011-CV, Corning; 5x Pen Strep Glutamine, 10378–016, Invitrogen) were added per well and incubated for 48 h (37 °C, 5% CO2). Bioluminescence was measured using an EnVision microplate reader (Perkin Elmer), following the addition of 2 µl per well of Bright-Glo™ (Promega). Compound toxicity against HepG2 cells was determined in parallel by measuring cellular ATP levels reported by luciferase activity. Methods were similar to the P. berghei liver stage assay, except for the addition of CellTiter-Glo® (Promega) as a detection reagent. DMSO (0.5%) was used as a negative control in both assays, with Atovaquone (5 µM) and Puromycin (10 µM) acting as positive controls in the P. berghei and toxicity assays, respectively.

[6] = test system: P. falciparum female gametocytes; experiment: Pf DGFA wash-out format, female readout; format: cell-based; conditions: Plasmodium falciparum; 48h preincubation/wash-out
[7] = test system: Stage IV–V 3D7 gametocytes; experiment: Gametocytocidal ATP-based bioluminescence assay (GC-ATP); format: cell-based, Plasmodium falciparum 3D7; conditions: Plasmodium falciparum, 3D7; 48h incubation; read-out: Pf late stage gametocyte (ATP depletion) IC50
Protocol: The metabolic viability of late stage gametocytes was determined using a gametocyte ATP bioluminescence assay. Stage IV–V 3D7 gametocyte cultures were double-purified by density gradient sedimentation over NycoPrep® followed by magnetic isolation. Then, parasites (50 µl per well containing 12,500 gametocytes) were added to compound pre-dispensed 384-well plates (781091, Greiner) and incubated at 37 °C for 48 h under 5% CO2/3% O2/92% N2. BacTiter-Glo® kit (G8231, Promega) was used to determine the ATP levels of viable parasites according to manufacturer’s instructions. After reagent addition (50 µl per well), luminescence of the plates was measured using a microplate reader (HTS counter Victor, Wallac).

[8] = test system: P. berghei-ANKA-GFP-Luc-SMCON sporozoites in HepG2-A16-CD81EGFP cells; experiment: P. berghei liver stage assay (luciferase sporozoite HepG2 invasion); format: cell-based; conditions: Plasmodium berghei
Protocol: as §2

[9] = test system: NF54 stage V gametocytes; experiment: Gametocytocidal MitoTracker-based viability assay (SaLSSA); format: cell-based, Plasmodium falciparum NF54; conditions: Plasmodium falciparum, NF54; 72h incubation; read-out: Pf Stage V GCT (mitotracker assay) IC50
Protocol: As another independent assessment of the metabolic viability of compound-treated stage V gametocytes, the Saponin-lysis Sexual Stage Assay (SaLSSA) was employed. A volume of 100 nl of test compounds were pre-dispensed in 384-well plates (781091-2B, Greiner) in 12-point dose response (25 µM to 1.41 × 10^−4 µM), prior to the addition of synchronous NF54 stage V gametocytes (40 µl at 0.70% gametocytaemia). Assay plates were then incubated for 72 h in a low oxygen environment (92% N2, 5% CO2, 3%O2) before a 10 µl MitoTracker Red CMXRos (2.5 µM) and saponin solution (0.13%w/v) was added. Plates were returned to 37 °C for 1 h to allow for complete red blood cell lysis, after which viable gametocytes were detected using an Operetta high-content imaging system. Analysis was performed using the Harmony package software, with potency calculated relative to puromycin (positive control) and DMSO (negative control).

[10] = test system: P. falciparum male gametocytes; experiment: Pf DGFA wash-out format, male readout; format: cell-based; conditions: Plasmodium falciparum; 48h preincubation/wash-out
[11] = test system: P. falciparum male gamete formation; experiment: Pf DGFA add-in format, male readout; format: cell-based, Plasmodium falciparum; conditions: Plasmodium falciparum; 0h preincubation/add-in
Protocol: as §1

[12] = 48h incubation, read-out: Pb Liver invasion assay IC50

| SMILES | IC50 [1] [µM] | IC50 [2] [µM] | %Inh HepG2 @10uM [3] [%] | IC50 [4] [µM] | Human HepG2 assay TOX50 ([5]; human, 48 h) [µM] | IC50 [6] [µM] | IC50 [7] [µM] | IC50 [8, 12] [µM] | IC50 [9] [µM] | IC50 [10] [µM] | IC50 [11] [µM] | activity in P. berghei ookinete development assay ([1]; profiling) | Human HepG2 assay TOX50 ([5]; 48h incubation) [µM] | HepG2 TOX50 ([5]; human, 48 h) [µM] | IC50 ([8]; read-out: Pb liver IC50) [µM] |
| --- | --- | --- | --- | --- | --- | --- | --- | --- | --- | --- | --- | --- | --- | --- | --- |
| CC(=O)c1c(C)nn(CC(=O)Nc2ccc(Br)cc2)c1C [DDD01027599] | > 12.5 | 4.03 | 4.72 | > 10 | 25.00 | 3.11 | 1.61 | 7.48 | 5.55 | 0.97 | > 10 |  |  |  |  |
| O=S(=O)(NCC1(O)CCOc2ccccc21)c1ccccc1F (stereo not shown) [DDD01028073] | 0.3 | 0.58 | -4.25 | > 10 | >50.0 | > 12.5 | > 10 | > 50 | > 25 | > 12.5 | 0.34 |  |  |  |  |
| Cc1ccc(S(=O)(=O)NCC2(O)CCOc3ccccc32)s1 (stereo not shown) [DDD01028074] | 0.29 | 0.79 | -4.01 | > 10 | >50.0 | > 12.5 | > 10 | > 50 | > 25 | > 12.5 | 0.61 |  |  |  |  |
| O=S(=O)(NCC1(O)CCOc2ccccc21)c1ccc(Cl)s1 (stereo not shown) [DDD01028075] | 0.34 | 1.32 | -6.65 | > 10 | >50.0 | > 12.5 | > 10 | > 50 | > 25 | > 12.5 | 0.24 |  |  |  |  |
| O=S(=O)(NCC1(O)CCOc2ccccc21)c1ccccc1Br (stereo not shown) [DDD01028076] | 0.22 | 0.48 | -0.163 | > 10 | >50.0 | > 12.5 | > 10 | > 50 | > 25 | > 12.5 | 0.53 |  |  |  |  |
| COc1cccc(-n2ccc3nc(N4CCCC4)ncc3c2=O)c1 [DDD01034957] | > 12.5 | > 12.5 | -4.05 | > 10 | >50.0 |  | > 10 |  | > 25 |  | > 10 |  |  |  |  |
| O=S(=O)(NCC1(O)CCOc2ccccc21)c1ccc(Br)s1 (stereo not shown) [DDD01035881] | 0.11 | 0.26 | 3.29 | > 10 | >50.0 | > 12.5 | > 10 |  | > 25 | > 12.5 | 0.19 |  |  |  |  |
| Cc1cccc(NC(=O)c2cccc(OCc3nnnn3C)c2)n1 [DDD01038630] | > 12.5 | > 12.5 | 18.75 | > 10 | >50.0 |  | > 10 | > 50 |  |  | > 10 |  |  |  |  |
| CC(c1ccco1)N(C(=O)CNc1ccc(C#N)cc1)C1CC1 (stereo not shown) [DDD01062645] | > 12.5 | > 12.5 | 4.38 | 5.05 | >50.0 | > 12.5 | > 10 |  | > 25 | > 12.5 | 0.44 | inactive |  |  |  |
| Cc1ccc(CN(c2cc(C)nc3nc(C(F)(F)F)nn23)C2CC2)cc1 [DDD01063654] | > 12.5 | > 12.5 | 0.83 | > 10 | >50.0 |  | > 10 | 15.3 | > 10 |  | > 10 |  |  |  |  |
| Cc1cc(C)c(CNCC(O)c2ccc(F)c(F)c2)c(C)c1.Cl (stereo not shown) [DDD01065539] | > 12.5 | > 12.5 | -11.40 | > 10 |  |  | > 10 | 17.2 |  |  | > 10 |  | 36.6 |  |  |
| CN(Cc1cccc(F)c1)C(=O)CS(=O)(=O)Cc1c(Cl)cccc1Cl [DDD01077188] | > 12.5 | > 12.5 | 5.76 | > 10 | >50.0 |  | > 10 | 23.1 |  |  | > 10 |  |  |  |  |
| CNc1cc(C)nc(NC2CCCN(C3Cc4ccccc4C3)C2)n1 (stereo not shown) [DDD01243506] | > 12.5 | > 12.5 | 28.56 | > 10 | >50.0 |  | > 10 |  |  |  | > 10 |  |  | ≥ 50 | 0.52 |
| CC(c1cccs1)N(C)Cc1cnc(-c2ccccn2)nc1 (stereo not shown) [DDD01246628] | > 25 | > 25 | 3.52 | > 10 | 11.30 |  | 2.31 | 13.3 | 0.2 |  | > 10 |  |  |  |  |
| CCCn1nccc1C(=O)N1CCN(C2CCc3ccccc3C2)CC1 (stereo not shown) [DDD01251134] | > 12.5 | > 12.5 | -7.89 | > 10 | >50.0 |  | > 10 | 20.7 |  |  | > 10 |  |  |  |  |
| CCn1ncc(Br)c1CN(C)S(=O)(=O)c1ccc(C)cc1 [DDD01259521] | > 12.5 | > 12.5 | 8.37 | > 10 | >50.0 |  | > 10 | 8.64 | > 25 |  | > 10 |  |  |  |  |
| c1cnnc(N2CCCC2CNc2ncnc3sccc23)c1 (stereo not shown) [DDD01299704] | > 12.5 | > 12.5 | -7.82 | > 10 | >50.0 |  | > 10 | 16.4 |  |  | > 10 |  |  |  |  |

Reference: PMC6143625, “A high throughput screen for next-generation leads targeting malaria parasite transmission” (Nature Communications, 2018)
